Patent US8598357B2, “Benzodioxole piperidine compounds” (Hoffmann-La Roche Inc., priority 2011, dated 2013)
pKi: −log10 of the molar value. Like-named read-outs stand apart in the source and are kept apart here.

Key:
[1] = target: D3 receptor (Homo sapiens (Human), UniProt P35462); test: Radioligand binding assay ([3H]-spiperone) on membranes of HEK293 EBNA cells expressing human D3 receptor
[2] = target: 5-HT2A receptor (Homo sapiens (Human), UniProt P28223); test: Radioligand binding assay ([3H]-ketanserin) on membranes of HEK293 EBNA cells expressing human 5-HT2A receptor
Description: (§1) HEK293 EBNA cells were transiently transfected with expression plasmids encoding for the human D2 or D3 or for the human 5-HT2A receptor, respectively. The cells were harvested 48 h post-transfection, washed three times with cold PBS and stored at −80° C. prior to use. The pellet was suspended in cold 50 mM Tris-HCl buffer containing 10 mM EDTA (pH 7.4) and was homogenized with a Polytron (Kinematica AG, Basel, Switzerland) for 20-30 sec at 12.000 rpm. After centrifugation at 48.000×g for 30 min at 4° C., the pellet was resuspended in cold 10 mM Tris-HCl buffer containing 0.1 mM EDTA (pH 7.4), homogenized, and centrifuged as above. This pellet was further resuspended in a smaller volume of ice cold 10 mM Tris-HCl buffer containing 0.1 mM EDTA (pH 7.4) and homogenized with a Polytron for 20-30 sec at 12.000 rpm. The protein content of this homogenate was determined with the Bio-Rad (Bradford) Protein Assay (Biorad Laboratories GmbH, München, Germany) according to the instructions of the manufacturer using gamma globulin as the standard. This homogenate was stored at −80° C. in aliquots and thawed immediately prior to use.
(§2) Aliquots of membrane preparations were thawed at RT, resuspended in assay buffer (D2, D3: 50 mM Tris-HCl, 120 mM NaCl, 5 mM MgCl2, 1 mM EDTA, 5 mM KCl, 1.5 mM CaCl2, pH=7.4; 5-HT2A: 50 mM Tris-HCl, 10 mM MgCl2, 1 mM EGTA, pH=7.4), homogenized with a Polytron for 20-30 sec at 12.000 rpm and adjusted to a final concentration of approximately 7.5 μg protein/well (D2, D3) and 15 μg protein/well (5-HT2A), respectively.
(§3) The nonspecific binding was determined with equally composed reaction mixtures in the presence of 10 μM unlabelled spiperone. Per well 45 μl of Microscint 40 (Perkin Elmer, Schwerzenbach, Switzerland) was added, plates for sealed, shaken for 20 min and counted for 3 min on a Topcount Microplate Scintillation Counter (Can berra Packard SA, Ziirich, Switzerland) with quenching correction.
(§4) The CPM value for each duplicate of a concentration of competing compound was averaged (y1), then the % specific binding was calculated according to the equation (((y1−non-specific)/(total binding−non-specific))×100). Graphs were plotted with the % specific binding using XLfit, a curve fitting program that iteratively plots the data using Levenberg-Marquardt algorithm. The single site competition analysis equation used was y=A+((B−A)/(1+((x/C)D))), where y is the % specific binding, A is the minimum y, B is the maximum y, C is the IC50, x is the log 10 of the concentration of the competing compound and D is the slope of the curve (the Hill Coefficient). […] The affinity constant (K) was calculated using the Cheng-Prusoff equation Ki=(IC50/1+([L]/Kd), where [L] is the concentration of radioligand and Kd is the dissociation constant of the radioligand at the receptor as determined by the saturation isotherm.

[3] = target: D2 receptor (Homo sapiens (Human), UniProt P14416); test: Radioligand binding assay ([3H]-spiperone) on membranes of HEK293 EBNA cells expressing human D2 receptor; details: human receptor in HEK293 EBNA cells; 0.7 nM [3H]-spiperone
D2 receptor, sequence (P14416 whole entry): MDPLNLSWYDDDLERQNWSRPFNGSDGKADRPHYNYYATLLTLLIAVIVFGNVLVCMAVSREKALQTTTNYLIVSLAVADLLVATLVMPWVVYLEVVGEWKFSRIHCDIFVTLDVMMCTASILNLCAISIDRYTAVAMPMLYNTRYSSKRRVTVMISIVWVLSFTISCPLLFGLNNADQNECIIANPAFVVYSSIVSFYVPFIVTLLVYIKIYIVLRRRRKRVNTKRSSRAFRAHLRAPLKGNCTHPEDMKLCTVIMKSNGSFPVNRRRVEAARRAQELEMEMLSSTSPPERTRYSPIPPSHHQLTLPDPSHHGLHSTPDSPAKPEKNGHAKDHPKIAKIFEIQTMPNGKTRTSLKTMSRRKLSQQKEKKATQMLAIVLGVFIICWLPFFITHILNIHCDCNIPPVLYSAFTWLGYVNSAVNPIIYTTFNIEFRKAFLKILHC
Description: as §1, §2, §3, §4

[4] = read-out: D3 Ki, human receptor in HEK293 EBNA cells, 0.5 nM [3H]-spiperone
[5] = read-out: 5HT2A Ki, human receptor in HEK293 EBNA cells, 1.1 nM [3H]-ketanserin

D3 receptor, sequence (P35462 whole entry): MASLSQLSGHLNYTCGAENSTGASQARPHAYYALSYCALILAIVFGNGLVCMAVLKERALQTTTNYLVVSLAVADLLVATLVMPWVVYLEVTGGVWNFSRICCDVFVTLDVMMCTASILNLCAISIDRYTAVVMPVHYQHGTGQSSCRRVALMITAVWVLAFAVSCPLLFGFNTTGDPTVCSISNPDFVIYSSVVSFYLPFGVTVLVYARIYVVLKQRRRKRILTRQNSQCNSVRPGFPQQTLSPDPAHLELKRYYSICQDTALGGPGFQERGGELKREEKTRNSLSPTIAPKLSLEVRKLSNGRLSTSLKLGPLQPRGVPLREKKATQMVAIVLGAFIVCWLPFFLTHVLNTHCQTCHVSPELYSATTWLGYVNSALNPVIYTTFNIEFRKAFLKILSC

Compound: O=C(N[C@H]1CC[C@H](CCN2CCC(c3cccc4c3OCO4)CC2)CC1)C1(C(F)(F)F)CC1 [Example 50, Trifluoromethyl-cyclopropanecarboxylic acid-trans-N-{4-[2-(4-benzo[1,3]dioxol-4-yl-piperidin-1-yl)-ethyl]-cyclohexyl}-amide]
- pKi [1, 4]: 7.39
- pKi [2, 5]: 7.72
- pKi [3]: 6.61

Compound: CO[C@@H]1CC[C@@H](CC(=O)N[C@H]2CC[C@H](CCN3CCC(c4cccc5c4OCO5)CC3)CC2)C1 [Example 30, Trans-N-{4-[2-(4-Benzo[1,3]dioxol-4-yl-piperidin-1-yl)-ethyl]-cyclohexyl}-2-((1R,3R)-3-methoxy-cyclopentyl)-acetamide]
- pKi [1, 4]: 8.28
- pKi [2, 5]: 7.56
- pKi [3]: 6.48

Compound: O=C(CC1CCCCO1)N[C@H]1CC[C@H](CCN2CCC(c3cccc4c3OCO4)CC2)CC1 (stereo partly drawn) [Example 22, Trans-N-{4-[2-(4-Benzo[1,3]dioxol-4-yl-piperidin-1-yl)-ethyl]-cyclohexyl}-2-(tetrahydro-pyran-2-yl)-acetamide]
- pKi [1, 4]: 8.03
- pKi ([2]; read-out: 5HT2A Ki): 7.81
- pKi [3]: 6.28

Compound: O=C(N[C@H]1CC[C@H](CCN2CCC(c3cccc4c3OCO4)CC2)CC1)C(F)(F)F [Example 73, Trans-N-{4-[2-(4-Benzo[1,3]dioxol-4-yl-piperidin-1-yl)-ethyl]-cyclohexyl}-2,2,2-trifluoro-acetamide]
- pKi [1, 4]: 7.67
- pKi [2, 5]: 7.43
- pKi [3]: 6.46

Compound: O=C(N[C@H]1CC[C@H](CCN2CCC(c3cccc4c3OCO4)CC2)CC1)c1ccc(F)cc1 [Example 37, Trans-N-{4-[2-(4-Benzo[1,3]dioxol-4-yl-piperidin-1-yl)-ethyl]-cyclohexyl}-4-fluoro-benzamide]
- pKi [1, 4]: 8.31
- pKi ([2]; read-out: 5HT2A Ki): 7.88
- pKi [3]: 6.63

Compound: COC1(C(=O)N[C@H]2CC[C@H](CCN3CCC(c4cccc5c4OCO5)CC3)CC2)CCCCC1 [Example 67, 1-Methoxy-cyclohexanecarboxylic acid-trans-N-{4-[2-(4-benzo[1,3]dioxol-4-yl-piperidin-1-yl)-ethyl]-cyclohexyl}-amide]
- pKi [1, 4]: 7.41
- pKi [2, 5]: 7.94
- pKi [3]: 6.71

Compound: O=C(N[C@H]1CC[C@H](CCN2CCC(c3cccc4c3OCO4)CC2)CC1)C1CCCO1 (stereo partly drawn) [Example 46, Tetrahydro-furan-2-carboxylic acid-trans-{4-[2-(4-benzo[1,3]dioxol-4-yl-piperidin-1-yl)-ethyl]-cyclohexyl}-amide]
- pKi [1, 4]: 7.32
- pKi [2, 5]: 7.84
- pKi [3]: 6.33

Compound: O=S(=O)(N[C@H]1CC[C@H](CCN2CCC(c3cccc4c3OCO4)CC2)CC1)N1CCOCC1 [Example 79, Morpholine-4-sulfonic acid-Trans-N-{4-[2-(4-benzo[1,3]dioxol-4-yl-piperidin-1-yl)-ethyl]-cyclohexyl}-amide]
- pKi [1, 4]: 8.21
- pKi ([2]; read-out: 5HT2A Ki): 7.25
- pKi [3]: 6.64

Compound: COCCC(=O)N[C@H]1CC[C@H](CCN2CCC(c3cccc4c3OCO4)CC2)CC1 [Example 2, Trans-N-{4-[2-(4-Benzo[1,3]dioxol-4-yl-piperidin-1-yl)-ethyl]-cyclohexyl}-3-methoxy-propionamide]
- pKi [1, 4]: 8.24
- pKi [2, 5]: 7.42
- pKi [3]: 6.37

Compound: O=S(=O)(N[C@H]1CC[C@H](CCN2CCC(c3cccc4c3OCO4)CC2)CC1)c1ccc(F)cc1 [Example 71, N-trans-{4-[2-(4-Benzo[1,3]dioxol-4-yl-piperidin-1-yl)-ethyl]-cyclohexyl}-4-fluoro-benzenesulfonamide]
- pKi [1, 4]: 8.58
- pKi ([2]; read-out: 5HT2A Ki): 7.18
- pKi [3]: 6.98

Compound: CC(=O)N[C@H]1CC[C@H](CCN2CCC(c3cccc4c3OCO4)CC2)CC1 [Example 1, Trans-N-{4-[2-(4-Benzo[1,3]dioxol-4-yl-piperidin-1-yl)-ethyl]-cyclohexyl}-acetamide]
- pKi [1, 4]: 8.30
- pKi [2, 5]: 7.62
- pKi [3]: 6.60

Compound: COC(=O)N[C@H]1CC[C@H](CCN2CCC(c3cccc4c3OCO4)CC2)CC1 [Example 18, Trans-{4-[2-(4-Benzo[1,3]dioxol-4-yl-piperidin-1-yl)-ethyl]-cyclohexyl}-carbamic acid methyl ester]
- pKi [1, 4]: 8.49
- pKi ([2]; read-out: 5HT2A Ki): 7.66
- pKi [3]: 6.88

Compound: N#Cc1ccc(C(=O)N[C@H]2CC[C@H](CCN3CCC(c4cccc5c4OCO5)CC3)CC2)cc1 [Example 14, Trans-N-{4-[2-(4-Benzo[1,3]dioxol-4-yl-piperidin-1-yl)-ethyl]-cyclohexyl}-4-cyano-benzamide]
- pKi [1, 4]: 8.11
- pKi [2, 5]: 8.04
- pKi [3]: 6.82

Compound: O=C(CC1(O)CCC1)N[C@H]1CC[C@H](CCN2CCC(c3cccc4c3OCO4)CC2)CC1 [Example 45, Trans-N-{4-[2-(4-Benzo[1,3]dioxol-4-yl-piperidin-1-yl)-ethyl]-cyclohexyl}-2-(1-hydroxy-cyclobutyl)-acetamide]
- pKi [1, 4]: 8.19
- pKi ([2]; read-out: 5HT2A Ki): 7.57
- pKi [3]: 6.58

Compound: O=C(N[C@H]1CC[C@H](CCN2CCC(c3cccc4c3OCO4)CC2)CC1)C1CC(Cl)C1 (stereo partly drawn) [Example 28, 3-Chloro-cyclobutanecarboxylic acid trans-{4-[2-(4-benzo[1,3]dioxol-4-yl-piperidin-1-yl)-ethyl]-cyclohexyl}-amide]
- pKi [1, 4]: 8.20
- pKi ([2]; read-out: 5HT2A Ki): 7.73
- pKi [3]: 6.52

Compound: O=C(CO)N[C@H]1CC[C@H](CCN2CCC(c3cccc4c3OCO4)CC2)CC1 [Example 65, Trans-N-{4-[2-(4-Benzo[1,3]dioxol-4-yl-piperidin-1-yl)-ethyl]-cyclohexyl}-2-hydroxy-acetamide]
- pKi [1, 4]: 8.04
- pKi [2, 5]: 7.67
- pKi [3]: 6.53

Compound: CN(C)C(=O)N[C@H]1CC[C@H](CCN2CCC(c3cccc4c3OCO4)CC2)CC1 [Example 75, N-Trans-3-{4-[2-(4-Benzo[1,3]dioxol-4-yl-piperidin-1-yl)-ethyl]cyclohexyl}-1,1-dimethyl-urea]
- pKi [1, 4]: 7.48
- pKi [2, 5]: 7.34
- pKi [3]: 7.28

Compound: O=C(N[C@H]1CC[C@H](CCN2CCC(c3cccc4c3OCO4)CC2)CC1)C1CC1(F)F (stereo partly drawn) [Example 26, Trans-2,2-Difluoro-cyclopropanecarboxylic acid {4-[2-(4-benzo[1,3]dioxol-4-yl-piperidin-1-yl)-ethyl]-cyclohexyl}-amide]
- pKi [1, 4]: 8.11
- pKi [2, 5]: 7.57
- pKi [3]: 6.71

Compound: O=C(N[C@H]1CC[C@H](CCN2CCC(c3cccc4c3OCO4)CC2)CC1)C1CCC1 [Example 54, Cyclobutanecarboxylic acid-trans-{4-[2-(4-benzo[1,3]dioxol-4-yl-piperidin-1-yl)-ethyl]-cyclohexyl}-amide]
- pKi [1, 4]: 8.10
- pKi ([2]; read-out: 5HT2A Ki): 7.77
- pKi [3]: 7.00

Compound: O=C(N[C@H]1CC[C@H](CCN2CCC(c3cccc4c3OCO4)CC2)CC1)C1COc2ccccc2C1 (stereo partly drawn) [Example 60, Chroman-3-carboxylic acid-trans-N-{4-[2-(4-benzo[1,3]dioxol-4-yl-piperidin-1-yl)-ethyl]-cyclohexyl}-amide]
- pKi [1, 4]: 8.17
- pKi [2, 5]: 7.66
- pKi [3]: 5.98

Compound: O=C(C[C@H]1CCCCO1)N[C@H]1CC[C@H](CCN2CCC(c3cccc4c3OCO4)CC2)CC1 [Example 41, Trans-N-{4-[2-(4-Benzo[1,3]dioxol-4-yl-piperidin-1-yl)-ethyl]-cyclohexyl}-2-(R)-tetrahydro-pyran-2-yl-acetamide]
- pKi [1, 4]: 8.12
- pKi ([2]; read-out: 5HT2A Ki): 7.90
- pKi [3]: 6.31

Compound: O=C(Cc1ccc2c(c1)OCO2)N[C@H]1CC[C@H](CCN2CCC(c3cccc4c3OCO4)CC2)CC1 [Example 59, 2-Benzo[1,3]dioxol-5-yl-trans-N-{4-[2-(4-benzo[1,3]dioxol-4-yl-piperidin-1-yl)-ethyl]-cyclohexyl}-acetamide]
- pKi [1, 4]: 8.40
- pKi [2, 5]: 7.43
- pKi [3]: 6.49

Compound: O=C(N[C@H]1CC[C@H](CCN2CCC(c3cccc4c3OCO4)CC2)CC1)C1CCOCC1 [Example 48, Tetrahydro-pyran-4-carboxylic acid-trans-{4-[2-(4-benzo[1,3]dioxol-4-yl-piperidin-1-yl)-ethyl]-cyclohexyl}-amide]
- pKi [1, 4]: 7.86
- pKi [2, 5]: 8.02
- pKi [3]: 6.74

Compound: CC(C)(O)C(=O)N[C@H]1CC[C@H](CCN2CCC(c3cccc4c3OCO4)CC2)CC1 [Example 32, Trans-N-{4-[2-(4-Benzo[1,3]dioxol-4-yl-piperidin-1-yl)-ethyl]-cyclohexyl}-2-hydroxy-2-methyl-propionamide]
- pKi [1, 4]: 7.60
- pKi ([2]; read-out: 5HT2A Ki): 8.32
- pKi [3]: 6.39

Compound: CCCC(=O)N[C@H]1CC[C@H](CCN2CCC(c3cccc4c3OCO4)CC2)CC1 [Example 25, Trans-N-{4-[2-(4-Benzo[1,3]dioxol-4-yl-piperidin-1-yl)-ethyl]-cyclohexyl}-butyramide]
- pKi [1, 4]: 8.24
- pKi [2, 5]: 7.45
- pKi [3]: 6.56

Compound: O=C(C[C@H]1COCCO1)N[C@H]1CC[C@H](CCN2CCC(c3cccc4c3OCO4)CC2)CC1 (single isomer, unassigned) [Example 4, Trans-N-{4-[2-(4-Benzo[1,3]dioxol-4-yl-piperidin-1-yl)-ethyl]-cyclohexyl}-2-(S) or (R)-[1,4]dioxan-2-yl-acetamide]
- pKi [1]: 8.01
- pKi [2]: 7.93

Compound: O=C(C[C@@H]1COCCO1)N[C@H]1CC[C@H](CCN2CCC(c3cccc4c3OCO4)CC2)CC1 (single isomer, unassigned) [Example 5, Trans-N-{4-[2-(4-Benzo[1,3]dioxol-4-yl-piperidin-1-yl)-ethyl]-cyclohexyl}-2-(R) or (S)-[1,4]dioxan-2-yl-acetamide]
- pKi [1]: 8.02
- pKi [2]: 7.77

Compound: O=C(CC1COCCO1)N[C@H]1CC[C@H](CCN2CCC(c3cccc4c3OCO4)CC2)CC1 (stereo partly drawn) [Example 3, Trans-N-{4-[2-(4-Benzo[1,3]dioxol-4-yl-piperidin-1-yl)-ethyl]-cyclohexyl}-2-[1,4]dioxan-2-yl-acetamide]
- pKi [1, 4]: 8.05
- pKi ([2]; read-out: 5HT2A Ki): 7.86
